Assay results reported in PMC8692891 (Frontiers in Immunology, 2021).
Where no end group is shown, it is not given here.

How the values were obtained:
[1] = tested on: STAT4 expression in MDLCs; test: STAT4 Western blot in MDLCs; format: cell-based, human; settings: n = 4; for Total STAT4 expression: MDLCs treated 24 h, CGRP 0.1 μM, SAX 0.1 μM, CGRP1–8 10 μM, LPS 10 μg/ml, normalized to beta actin
Procedure: For PBMCs, cells (2 × 10^6/sample) were activated with PHA (5 μg/ml) + IL2 (100 U/ml) for 48 h at 37°C, serum-starved overnight, and stimulated for 30 min at 37°C with either IL12 (10 ng/ml; R&D systems) or interferon alpha (IFNα, 5 × 10^4 U/ml; pbl Assay Science). For MDLCs, cells (2 × 10^6/sample) were re-suspended in complete RPMI medium without cytokines and rested overnight at 37°C. […] The cells were then washed and stimulated for 30 min at 37°C with combination of IL12 + IFNα at the concentrations indicated above. PBMCs/MDLCs were subsequently lysed for 30 min on ice with 100 μl lysis buffer [50 mM Tris buffer pH = 7.5, 150 mM NaCl, 2 mM EDTA, 1% Triton X100, 0.1% SDS, 1:100 dilutions of phosphatase inhibitors II/III and protease inhibitor cocktail (Sigma)], followed by three cycles of 10 s vortex and 10 min incubation on ice. Lysates were centrifuged for 10 min at 4°C/13,200 rpm, and supernatants were collected and stored at −80°C. […] Blocking was performed for 1 h at room temperature with blocking buffer (Tris-buffered saline (TBS), 0.5% Tween 20, and 0.5% dry milk). The blots were next incubated overnight at 4°C with commercial rabbit polyclonal Abs suitable for WB, directed against human STAT4 (Proteintech #13028-1AP, 0.5 μg/ml) or phosphorylated STAT4 (pSTAT4; R&D systems, #AF4319, 1 μg/ml), followed by 1:1,000 dilution of HRP-conjugated donkey-anti-rabbit IgG Ab (Southern Biotech) for 1 h at room temperature. Loading control was verified by incubation with goat polyclonal Ab to beta actin (abcam, 0.4 μg/ml), followed by 1:5,000 dilution of HRP-conjugated donkey-anti-goat IgG Ab (Promega). All Abs were diluted in blocking buffer, and pre-stained SDS-PAGE standard markers (ThermoFisher) were applied to determine molecular weights. Revelation was performed for 1–10 s with ECL-Prime chemiluminescence detection kit (Amersham). Images were acquired with the Fusion FX camera platform (Vilber Lournmat) and protein expression was quantified with ImageJ software (NIH).
(A, B) PHA/IL2-activated PBMCs were serum-starved overnight at 37°C, and left untreated (Un) or stimulated for 30 min with either IL12 or IFNα. […] (F) MDLCs were treated as described in panels (C, D) above, and further stimulated for 30 min with combination of IL12 + IFNα.

[2] = tested on: HIV-1 ADA; test: MDLCs-mediated HIV-1 trans-infection to CD4+ T-cells; format: cell-based; settings: for Inhibition of MDLCs-mediated HIV-1 trans-infection (in words): p24 ELISA or GFP-reporter T-cells by flow cytometry
Procedure: (§1) For langerin surface expression, MDLCs were washed and stained for 20 min on ice in a final volume of 50 µl PBS with a phycoerythrin (PE)-conjugated mouse monoclonal Ab against human langerin (clone DCGM4, Beckman Coulter), or matched isotype control. For HIV-1 trans-infection, MDLCs were washed and pulsed with HIV-1 ADA (1ng p24 corresponding to multiplicity of infection of 0.2) for 4 h. MDLCs were next incubated with autologous CD4+ T-cells or with green fluorescent protein (GFP)-reporter T-cells, and HIV-1 replication was measured in the co-culture supernatants using p24 ELISA (Fujirebio) or by evaluating GFP fluorescent by flow cytometry, as we described ([13]–[15]). Fluorescent profiles were acquired using a Guava easyCite and analyzed with the InCyte software (Merck-Millipore).
(§2) Data was analyzed using Prism software (GraphPad). Concentration-response curves were analyzed with the [log(agonist) vs. response (three parameters)] model for langrin upregulation and the [log(inhibitor) vs. normalized response − variable slope] model for HIV-1 trans-infection inhibition. The -log molar concentrations of agonists generating 50% response represented potencies (i.e., pEC50 and pIC50). Statistical significance was analyzed with the two-tailed Student’s t-test.
The cells were then pulsed with HIV-1 ADA for 4 h, washed, and incubated for 7 days with autologous CD4+ T-cells (A–C) or 3 days with HIV-1 GFP-reporter T-cells (D). HIV-1 trans-infection and replication in T-cells was evaluated by p24 ELISA in the co-culture supernatants or by GFP expression and flow cytometry.

[3] = tested on: langerin surface expression in MDLCs; test: Langerin surface expression in MDLCs (flow cytometry); format: cell-based, human
Procedure: as §1, §2
The cells were then stained for surface langerin and examined by flow cytometry.

[4] = tested on: HIV-1 (V29)-infected PBMCs; test: HIV-1 infection of dermal T-cells in inner foreskin tissue explants ex-vivo; format: cell-based; settings: explants pre-treated 24 h at 1 μM, inoculated 4 h, further three days incubation; flow cytometry; n = 4
Procedure: For infection experiments, round (8 mm diameter) inner foreskin tissue pieces were placed in 24-well plates and incubated submerged for 24 h at 37°C with 1 ml complete RPMI medium, alone or supplemented with CGRP or SAX (1 μM, four explants per condition). The tissues were next washed, transferred to two-chamber transwell inserts (Sigma), and inoculated in a polarized manner for 4 h at 37°c with either non-infected or HIV-1 (V29)-infected PBMCs (in duplicates), as we described ([11], [12]).
Dermal cell suspensions were prepared following washing of the explants, additional incubation for three days at 37°C submerged in 1 ml fresh medium, and subsequent enzymatic digestion with collagenase/DNase as we described ([11], [12]). Pooled cells of each duplicate were surface stained as above using FITC-conjugated mouse-anti-human CD3 Ab (Pharmingen), fixed, permeabilized, and stained for 30 min at room temperature with 1:160 dilution of PE-conjugated mouse-anti-human Ab to HIV-1 p24 and core antigens (Beckman Coulter). Fluorescent profiles were recorded using a Guava easyCyte and InCyte software.
(D, E) Other explants were further incubated for additional three days and digested with collagenase/DNase. In panel (D), shown are representative flow cytometry dot plots of dermal cell suspensions double stained for surface CD3 and intracellular p24 and examined by flow cytometry. […]

[5] = cited from earlier work
Source text: However, CGRP-mediated vasodilation is potentially protective, at least during hypertension and cardiovascular complications ([5]).

lipopolysaccharide [LPS]
Total STAT4 expression [1]: significantly increased

serinyl-CGRP2-37-amide with an albumin binding fatty acid moiety in the N-terminus [SAX]
pIC50 [95% CI], inhibition of MDLCs-mediated HIV-1 trans-infection ([2]; MDLCs treated 24 h, pulsed with HIV-1 ADA 4 h, 7 days with autologous CD4+ T-cells, p24 ELISA, -log molar, n = 5): 8.9 [9.9–7.9]
Inhibition of MDLCs-mediated HIV-1 trans-infection (in words) ([2]; MDLCs treated 24 h): significantly inhibited
Fold lower potency of SAX than CGRP ([2]; blocking HIV-1 trans-infection in MDLCs): > 10 fold
pEC50 [95% CI], increase in langerin surface expression ([3]; MDLCs treated 24 h, flow cytometry, -log molar, n = 5): 8.3 [9.6–6.5]
Total STAT4 expression [1]: significantly increased
Phosphorylation of induced STAT4 (pSTAT4) upon cytokine stimulation ([1]; after 24 h agonist treatment, 30 min IL12 + IFNα): could be readily phosphorylated
HIV-1 infection of dermal T-cells (p24+CD3+) [4]: undetectable levels
Half-life compared to CGRP [5]: longer

CGRP1–8: previously described CGRP N-terminal fragment (ACDTATCV; not fully specified (bridges); ends and bridges not checked; UniProt P06881 83-90, looked up, fragment)
Inhibition of MDLCs-mediated HIV-1 trans-infection (in words) ([2]; MDLCs treated 24 h): lacks anti-HIV-1 inhibitory activity
Increase in langerin surface expression (in words) ([3]; MDLCs treated 24 h, flow cytometry): fails to increase
Total STAT4 expression [1]: failed to increase

NCCCC[C@H](NC(=O)[C@@H](Cc1cc(Br)c(O)c(Br)c1)NC(=O)N1CCC(N2Cc3ccccc3NC2=O)CC1)C(=O)N1CCN(c2ccncc2)CC1 [BIBN4096]
Effect of antagonist on CGRP- and SAX-mediated inhibition of HIV-1 trans-infection ([2]; BIBN4096 1 μM added 15 min before agonists (0.1 μM), n = 3): completely abrogated
Effect of antagonist on CGRP- and SAX-mediated increase in langerin expression ([3]; BIBN4096 1 μM added 15 min before agonists (0.1 μM), n = 4): completely abrogated
Effect of antagonist on CGRP- and SAX-mediated increase in STAT4 ([1]; BIBN4096 1 μM added 15 min before agonists (0.1 μM)): abrogated
